In article PMC7144940, “Principles of RNA and nucleotide discrimination by the RNA processing enzyme RppH” (Nucleic Acids Research, 2020):
“Also recorded” adds a separate entry of the source. Read-outs that look alike come from different tables or passages of the source.

Key:
Escherichia coli RppH [1] = target: T1, Escherichia coli RppH (Escherichia coli, UniProt P0A776); type: biochemical; design: 0.1 mM substrate and 1 μM full-length RppH in case of nucleotides; decahistidine (N, cleaved yes); SUMO (N, cleaved yes); made in house; host or cells: E. coli BL21(DE3); details: for hydrolysis by RppH (TLC): 1 mM substrate, 5 μM RppH, 37°C, 1 h
Experimental: Reactions for thin layer chromatography (TLC) were performed with 1 mM nucleotide substrates and 5 μM of the full-length RppH, in a 10-μl solution containing 10 mM MgCl2 and 50 mM buffer with different pH. Buffers were: MES-NaOH, pH 6.0; Na-cacodylate-HCl, pH 6.5; MOPS-NaOH, pH 7.0; HEPES-NaOH, pH 7.5; Tris-HCl, pH 8.0, 8.5 and 9.0. Reactions were incubated at 37°C for 1 h and quenched with 5 μl of 150 mM ethylenediaminetetraacetic acid (EDTA). Samples were analyzed on PEI-cellulose plates (F-254, Selecto Scientific) in 0.3 M potassium phosphate buffer, pH 7.5, for adenosine triphosphate (ATP), adenosine diphosphate (ADP), GTP, GDP, pppAG (RNA), ppGpp and pppGpp, and pH 3.3 for CTP and CDP, UTP and UDP. RNAs were visualized by UV254 shadowing. The equimolar amount of wild-type E. coli DapF ([8]) was added to the reactions for testing RppH activity stimulation at pH 7.5. Inhibition of RppH activity was conducted using NaF (Sigma-Aldrich) at 1–10 mM. For TLC experiments, original colored images were converted to black-and-white images, and the levels of brightness were adjusted to enhance the contrast and better visualize reaction products.
Target sequence in this assay (P0A776 whole entry): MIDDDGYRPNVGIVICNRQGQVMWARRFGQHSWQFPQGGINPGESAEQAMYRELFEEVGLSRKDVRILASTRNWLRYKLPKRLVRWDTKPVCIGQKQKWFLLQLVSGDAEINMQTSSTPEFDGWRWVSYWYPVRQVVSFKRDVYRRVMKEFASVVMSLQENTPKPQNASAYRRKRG

Escherichia coli RppH [2] = target: T1, Escherichia coli RppH; type: biochemical; design: 0.1 mM substrate and 1 μM full-length RppH in case of nucleotides; decahistidine (N, cleaved yes); SUMO (N, cleaved yes); made in house; host or cells: E. coli BL21(DE3); details: for initial reaction rate of hydrolysis by RppH: nucleotide substrate 0.1 mM, 1 μM full-length RppH, pH 7.5, 10 mM MgCl2, 37°C, linear regression, n = 2, error is SE
Experimental: (§1) RppH activity on pppAG and ppAG RNAs, NTPs, NDPs, and ppGpp was determined by kinetic analysis, as described in ref. ([6]). Each reaction mixture contained 0.1 mM substrate and 1 μM full-length RppH in case of nucleotides and 0.1 μM RppH in case of RNA, in a 50-μL solution containing 50 mM HEPES-NaOH, pH 7.5, 10 mM MgCl2 , 0.1% Triton X-100, at 37°C. Reactions were incubated for 0–20 min and quenched with 750 μl of 50 mM sodium acetate, pH 4.5. The quenched reaction samples were analyzed by anion-exchange chromatography on a 5 × 50 mm MonoQ column (GE Healthcare). The reaction products and remaining substrates were eluted with a 0–1.0 M NaCl gradient in 10 mM Tris-HCl, pH 7.5, detected at 260 nm, and the amount of each mono- or oligonucleotide was calculated by using the integration function in UNICORN software (GE Healthcare). The initial reaction rates were calculated based on the ratio between remaining substrate and reaction products using a linear fit model of GraphPad. Each assay was repeated at least twice.
Target sequence in this assay (P0A776 whole entry): as above

Escherichia coli RppH [3] = target: T1, Escherichia coli RppH; test: Competition experiments: inhibition of RNA hydrolysis by nucleotides; type: biochemical; design: 0.1 mM substrate and 1 μM full-length RppH in case of nucleotides; decahistidine (N, cleaved yes); SUMO (N, cleaved yes); made in house; host or cells: E. coli BL21(DE3)
Experimental: as §1
Target sequence in this assay (P0A776 whole entry): as above
Competition experiments were conducted using the same protocol as cleavage assays with the 0.1 mM substrate RNA concentration, the nucleotide concentration ranging between 0.1-5.0 mM, and 10 min incubation. The initial reaction rates were calculated based on the ratio between reaction products and remaining substrate using a linear fit model of GraphPad software. Because of peak overlap, inhibition of GTP hydrolysis was determined solely based on quantification of the reaction products. IC50 values were determined using an IC50 model of GraphPad.

Escherichia coli RppH [4] = target: T1, Escherichia coli RppH; test: Metal dependence of RppH reactivity (TLC); type: biochemical; design: RppHd (Δ161-176); Nterm-Ser0-Met1; decahistidine (N, cleaved yes); SUMO (N, cleaved yes); made in house; host or cells: E. coli BL21(DE3); details: 5 mM substrate, 5 μM RppHd
Experimental: Reactions were performed with 5 mM GTP and 5 μM RppHd, in a 20-μL solution containing 10 mM divalent cation salt (MgCl2, MnCl2, NiCl2, or CaCl2) and 50 mM buffer with different pH (HEPES-Na, pH 7.5; Tris-HCl, pH 8.0, 8.5, 9.0). Reactions were incubated at 37 °C for 1 h and quenched with 10 μL 150 mM EDTA. Samples were analyzed on PEI-cellulose plates in 0.3 M potassium phosphate buffer, pH 7.5, at room temperature. RNAs were visualized by UV254 shadowing.
Target sequence in this assay (P0A776 1-160): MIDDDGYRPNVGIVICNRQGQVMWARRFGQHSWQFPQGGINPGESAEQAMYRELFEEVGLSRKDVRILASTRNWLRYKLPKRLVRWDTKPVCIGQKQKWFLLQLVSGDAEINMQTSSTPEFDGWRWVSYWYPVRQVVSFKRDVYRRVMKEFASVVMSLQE

[5] = target: T2, DapFm (E. coli DapF with Y268A and R36A mutations) (Escherichia coli, UniProt P0A6K1 1-274, Y268A | R36A); test: crystal structure; RppHt-DapFm complex formed by mixing DapFm and RppHt at a molar ratio of 1:1.2 (20 mM Tris-HCl pH 8.0, 500 mM NaCl, 1 mM DTT), purified on Superdex 200; crystals from 30% PEG400, 0.1 M CHES pH 9.2, 18°C; soaked with GTP, GDP or pppGpp with MgCl2 and NaF; details: both partners purified
T2 construct: extra serine left at the N-terminus of all proteins by the ULP1 cleavage of the His10-SUMO tags; DapF (diaminopimelate epimerase), Escherichia coli, mutated variant of the full-length protein with Y268A and R36A; source: E. coli BL21(DE3), purified (HisTrap FF, tag cleavage by ULP1, Superdex 200); not shown: decahistidine, N-terminal, cleaved; SUMO, N-terminal, cleaved
T2 sequence: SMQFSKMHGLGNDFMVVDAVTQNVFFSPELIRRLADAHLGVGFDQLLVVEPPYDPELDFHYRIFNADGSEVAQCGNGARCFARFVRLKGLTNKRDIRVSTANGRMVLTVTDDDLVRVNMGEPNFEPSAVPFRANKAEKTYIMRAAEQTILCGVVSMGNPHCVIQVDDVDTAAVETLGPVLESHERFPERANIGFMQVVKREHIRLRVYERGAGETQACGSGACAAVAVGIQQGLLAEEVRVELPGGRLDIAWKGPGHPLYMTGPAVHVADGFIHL

[6] = longer incubation, pH 7.5, 1 μM RppH

Molecule: O=c1ccn([C@@H]2O[C@H](CO[P@@](=O)(O)O[P@@](=O)(O)OP(=O)(O)O)[C@@H](O)[C@H]2O)c(=O)[nH]1 (stereo in doubt) [UTP, uridine triphosphate]
- hydrolysis by RppH (TLC) (Escherichia coli RppH [1]; pH 8.5 and 9.0): majority

Molecule: Nc1ncnc2c1ncn2[C@@H]1O[C@H](COP(=O)(O)OP(=O)(O)O)[C@@H](O)[C@H]1O [ADP, adenosine diphosphate]
- hydrolysis by RppH (TLC) (Escherichia coli RppH [1]; pH 8.0): all

Molecule: Nc1ncnc2c1ncn2[C@@H]1O[C@H](COP(=O)(O)OP(=O)(O)OP(=O)(O)O)[C@@H](O)[C@H]1O [ATP, adenosine triphosphate]
- hydrolysis by RppH (TLC) (Escherichia coli RppH [1]; pH 8.5 and 9.0): all
- undigested substrate remaining at plateau (Escherichia coli RppH [2]; [6]): ~70%
- initial reaction rate of hydrolysis by RppH (Escherichia coli RppH [2]): 4.2 ± 0.24 µM/min

Molecule: Nc1ccn([C@@H]2O[C@H](COP(=O)(O)OP(=O)(O)O)[C@@H](O)[C@H]2O)c(=O)n1 [CDP]
- hydrolysis by RppH (TLC) (Escherichia coli RppH [1]; pH 8.0): almost all

Molecule: Nc1ccn([C@@H]2O[C@H](COP(=O)(O)OP(=O)(O)OP(=O)(O)O)[C@@H](O)[C@H]2O)c(=O)n1 [CTP, cytidine triphosphate]
- hydrolysis by RppH (TLC) (Escherichia coli RppH [1]; pH 8.5 and 9.0): majority

Molecule: Nc1nc2c(ncn2[C@@H]2O[C@H](COP(=O)(O)OP(=O)(O)O)[C@@H](O)[C@H]2O)c(=O)[nH]1 [GDP]
- hydrolysis by RppH (TLC) (Escherichia coli RppH [1]; pH 8.0): almost all
- conversion of substrate, without approaching a plateau (Escherichia coli RppH [2]; [6]): ~50%
- initial reaction rate of hydrolysis by RppH (Escherichia coli RppH [2]): 3.4 ± 0.07 µM/min
- IC50 (Escherichia coli RppH [3]; 0.1 mM ppAG RNA, nucleotide 0.1-5.0 mM, 10 mM Mg2+, pH 7.5, 10 min, n = 2, mean ± SE, GTP value estimated from a smooth curve, read-out: IC50, inhibition of RppH reactivity with ppAG RNA): ~59 µM
- IC50 (Escherichia coli RppH [3]; 0.1 mM pppAG RNA, nucleotide 0.1-5.0 mM, 10 mM Mg2+, pH 7.5, 10 min, n = 2, mean ± SE, read-out: IC50, inhibition of RppH reactivity with pppAG RNA): ~32 µM

Molecule: Nc1nc2c(ncn2[C@@H]2O[C@H](COP(=O)(O)OP(=O)(O)OP(=O)(O)O)[C@@H](O)[C@H]2O)c(=O)[nH]1 [GTP, guanosine triphosphate]
- hydrolysis by RppH (TLC) (Escherichia coli RppH [1]; pH 8.5 and 9.0): majority
- undigested substrate remaining at plateau (Escherichia coli RppH [2]; [6]): ~70%
- initial reaction rate of hydrolysis by RppH (Escherichia coli RppH [2]): 3.1 ± 0.13 µM/min
- hydrolysis by RppH in the presence of Mg2+ (Escherichia coli RppH [4]; 10 mM MgCl2, pH 7.5-9.0, 1 h): support hydrolysis most; also recorded: most efficiently
- hydrolysis by RppH in the presence of Mn2+ (Escherichia coli RppH [4]; 10 mM MnCl2, pH 7.5-9.0, 1 h): very low efficiency; also recorded: some activity
- hydrolysis by RppH in the presence of Ni2+ or Ca2+ (Escherichia coli RppH [4]; 10 mM NiCl2 or CaCl2, pH 7.5-9.0, 1 h): do not support hydrolysis; also recorded: no activity
- IC50 (Escherichia coli RppH [3]): ~4100 µM
- IC50 (Escherichia coli RppH [3]; IC50, inhibition of RppH reactivity with pppAG RNA, 0.1 mM pppAG RNA, nucleotide 0.1-5.0 mM, 10 mM Mg2+, pH 7.5, 10 min, n = 2, mean ± SE): 1580 µM
- IC50 (Escherichia coli RppH [3]; IC50, range over pppAG and ppAG RNA substrates, pppAG and ppAG RNA): 1600 to 4100 µM
- IC50 (Escherichia coli RppH [3]; concentration to achieve 2-fold inhibition of the reaction of RppH with ppAG, ppAG RNA): ~4100 µM
- IC50 (Escherichia coli RppH [3]; concentration to achieve 2-fold inhibition of the reaction of RppH with pppAG, pppAG RNA): ~1600 µM

Molecule: O=c1ccn([C@@H]2O[C@H](COP(=O)(O)OP(=O)(O)O)[C@@H](O)[C@H]2O)c(=O)[nH]1 [UDP]
- hydrolysis by RppH (TLC) (Escherichia coli RppH [1]; pH 8.0): almost all

Molecule: F [fluoride]
- effect on E. coli RppH activity (TLC) (Escherichia coli RppH [1]; NaF 1-10 mM, GTP and GDP at pH 8.0, pppGpp and ppGpp at pH 7.5): Inhibition

Molecule: Nc1nc2c(ncn2[C@@H]2O[C@H](COP(=O)(O)OP(=O)(O)O)[C@@H](OP(=O)(O)OP(=O)(O)O)[C@H]2O)c(=O)[nH]1 [ppGpp]
- hydrolysis by RppH (TLC) (Escherichia coli RppH [1]; pH 7.0): slow hydrolysis
- hydrolysis by RppH (TLC) (Escherichia coli RppH [1]; pH 7.5): About half
- hydrolysis by RppH (TLC) (Escherichia coli RppH [1]; pH 8.0): most
- initial reaction rate of hydrolysis by RppH (Escherichia coli RppH [2]): 1.20 ± 0.07 µM/min
- times less reactive than GDP (Escherichia coli RppH [2]; ratio of initial rates, pH 7.5): ~2.8

Molecule: Nc1nc2c(ncn2[C@@H]2O[C@H](COP(=O)(O)OP(=O)(O)OP(=O)(O)O)[C@@H](OP(=O)(O)OP(=O)(O)O)[C@H]2O)c(=O)[nH]1 [pppGpp]
- hydrolysis by RppH (TLC) (Escherichia coli RppH [1]; pH 7.5): very slow hydrolysis
- hydrolysis by RppH (TLC) (Escherichia coli RppH [1]; pH 8.0): moderate hydrolysis
- initial reaction rate of hydrolysis by RppH (Escherichia coli RppH [2]): 1.30 ± 0.10 µM/min
- times less reactive than GTP (Escherichia coli RppH [2]; ratio of initial rates, pH 7.5): ~2.4

B1: RppHt (E. coli RppH, Δ161-176 and Q159A/E160A) (enzyme, Escherichia coli)
chain: SMIDDDGYRPNVGIVICNRQGQVMWARRFGQHSWQFPQGGINPGESAEQAMYRELFEEVGLSRKDVRILASTRNWLRYKLPKRLVRWDTKPVCIGQKQKWFLLQLVSGDAEINMQTSSTPEFDGWRWVSYWYPVRQVVSFKRDVYRRVMKEFASVVMSLAA
notes: extra serine (Ser0) left at the N-terminus by the ULP1 cleavage of the His10-SUMO tags; RNA pyrophosphohydrolase RppH, Escherichia coli, C-terminally truncated variant Δ161-176 (Met1 to residue 160) with Q159A/E160A; printed as Nterm-Ser0-Met1…Ala159-Ala160-Cterm; source: E. coli BL21(DE3), purified (HisTrap FF, tag cleavage by ULP1, HiTrap SP, Superdex 75); not shown: decahistidine, N-terminal, …
- binding result [5]: binds
